Laboratory results published in patent US8049014B2, “Aminoquinoline derivatives, preparation method thereof and pharmaceutical composition comprising the same” (Korea Institute of Science and Technology, priority 2009, dated 2011).

Columns and labels:
HS27 fibroblasts = test: Inhibition of proliferation of HS27 fibroblasts (selectivity, MTT reduction assay); assay type: cell-based; conditions: Homo sapiens
Description: (§1) 10% of fetal bovine serum (FBS) and 1% of penicillin/streptomycin were put into a Dulbecco's Modified Eagle (DMEM) medium, and A375P tumor cells obtained from ATCC was incubated in the above medium under a 5% CO2 atmosphere at 37° C. A375P cells were taken into 0.05% trypsin-0.02% ethylene-diamine tetraacetic acid (EDTA) and seeded it into wells of 96 well plate with 5×10^3 cells/well, and the viability of the cells was determined with a conventional [3-(4,5-dimethylthiazol-2-yl)-2,5-diphenyltetrazolium bromide, MTT] reduction assay. In the MTT efficacy experimentation, 15 μL of dye per well was put into the wells in accordance with the protocol of CellTiter 96® Assay (Promega), and then incubated for two hours, into which 100 μL of stop solution was added. The resultant was read after 24 hours. After one day of the plating, the obtained material was treated with a compound of the present invention. When it was treated with the compound, 10 mM of stock solution was prepared, and gradually diluted to one-third in dimethyl sulfoxide (DMSO). A test compound plate was prepared with 12 points, into which 0.5 μL was put (final concentration was DMSO 0.5%). Absorbance was read at a wavelength of 590 nm using EnVision 2103 (Perkin Elmer Boston, Mass., US), and GI50 values were calculated using GraphPad Prism 4.0 software.
(§2) GI50 values indicating inhibition of the compounds according to the examples of the present invention and control substances, on the proliferation of A375 melanoma tumor cells and HS27 fibroblasts. Sorafenib (BAY43-9006, Nexavar) which has been known as a substance having a good anti-proliferative effect on the melanoma tumor cells was used as a control substance.

[1] = tested on: A375 melanoma tumor cells; test: Anti-proliferative effect on melanoma tumor cells (MTT reduction assay); assay type: cell-based
Description: as §1, §2

[2] = Homo sapiens, A-375, A375 melanoma tumor cells

SMILES | GI50 [1, 2] [µM] | GI50 ([1]; A375 melanoma tumor cells) [µM] | GI50 (HS27 fibroblasts) [µM]
Nc1cccc2c(Oc3ccc(NC(=O)c4ccc(Cl)c(C(F)(F)F)c4)cc3)ccnc12 [Compound 1b, N-[4-(8-aminoquinolin-4-yloxy)phenyl]-4-chloro-3-trifluoromethylbenzamide] | 5.69 | – | 7.63
O=C(Nc1ccc(Oc2ccnc3c(NC(=O)c4ccccc4)cccc23)cc1)c1ccc(Cl)c(C(F)(F)F)c1 [Compound 1e, N-[4-(8-benzoylaminoquinolin-4-yloxy)phenyl]-4-chloro-3-trifluoromethylbenzamide] | 0.77 to 0.8 | 0.8 | > 20
CC(=O)Nc1cccc2c(Oc3cc(NC(=O)c4cccc(C(F)(F)F)c4)ccc3C)ccnc12 [Compound 1l, N-[3-(8-acetylaminoquinolin-4-yloxy)-4-methylphenyl]-3-trifluoromethylbenzamide] | 1.28 | – | > 20
CC(=O)Nc1cccc2c(Oc3cc(NC(=O)c4cc(C(F)(F)F)cc(C(F)(F)F)c4)ccc3C)ccnc12 [Compound 1m, N-[3-(8-acetylaminoquinolin-4-yloxy)-4-methylphenyl]-3,5-bistrifluoromethylbenzamide] | 0.77 to 0.8 | 0.77 | > 20
CC(=O)Nc1cccc2c(Oc3cc(NC(=O)c4ccc([N+](=O)[O-])c(C(F)(F)F)c4)ccc3C)ccnc12 [Compound 1n, N-[3-(8-acetylaminoquinolin-4-yloxy)-4-methylphenyl]-4-nitro-3-trifluoromethylbenzamide] | 0.77 to 0.8 | 0.79 | > 20
CC(=O)Nc1cccc2c(Oc3cc(NC(=O)c4cc(N5CCC(O)CC5)cc(C(F)(F)F)c4)ccc3C)ccnc12 [Compound 1o, N-[3-(8-acetylaminoquinolin-4-yloxy)-4-methylphenyl]-3-(4-hydroxypiperidin-1-yl)-5-trifluoromethylbenzamide] | > 20 | – | > 20
CC(=O)Nc1cccc2c(Oc3cc(NC(=O)c4cc(-n5cnc(C)c5)cc(C(F)(F)F)c4)ccc3C)ccnc12 [Compound 1p, N-[3-(8-acetylaminoquinolin-4-yloxy)-4-methylphenyl]-3-(4-methylimidazol-1-yl)-5-trifluoromethylbenzamide] | > 20 | – | > 20
CC(=O)Nc1cccc2c(Oc3cc(NC(=O)c4ccccc4Cl)ccc3C)ccnc12 [Compound 1q, N-[3-(8-acetylaminoquinolin-4-yloxy)-4-methylphenyl]-2-chlorobenzamide] | 2.12 | – | > 20
CC(=O)Nc1cccc2c(Oc3cc(NC(=O)c4cc(C)on4)ccc3C)ccnc12 [Compound 1r, N-[3-(8-acetylaminoquinolin-4-yloxy)-4-methylphenyl]-5-methylisoxazole-3-carboxylic acid amide] | > 20 | – | > 20
Cc1ccc(NC(=O)c2ccc(Cl)c(C(F)(F)F)c2)cc1Oc1ccnc2c(NC(=O)c3ccccc3)cccc12 [Compound 1s, N-[3-(8-benzoylaminoquinolin-4-yloxy)-4-methylphenyl]-4-chloro-3-trifluoromethylbenzamide] | 1.03 | – | > 20
CNC(=O)c1cc(Oc2ccc(NC(=O)Nc3ccc(Cl)c(C(F)(F)F)c3)cc2)ccn1 [Sorafenib, reference compound] | 5.58 | – | 7.85

More lines, main results first:

GI50 [1, 2] [µM] | GI50 ([1]; A375 melanoma tumor cells) [µM] | SMILES | GI50 (HS27 fibroblasts) [µM]
3.74 | – | Nc1cccc2c(Oc3ccc(NC(=O)Nc4ccc(Cl)c(C(F)(F)F)c4)cc3)ccnc12 [Compound 1a, 1-[4-(8-aminoquinolin-4-yloxy)phenyl]-3-(4-chloro-3-trifluoromethylphenyl)urea] | 6.71
4.19 | – | CC(=O)Nc1cccc2c(Oc3ccc(NC(=O)Nc4ccc(Cl)c(C(F)(F)F)c4)cc3)ccnc12 [Compound 1c, 1-[4-(8-acetylaminoquinolin-4-yloxy)phenyl]-3-(4-chloro-3-trifluoro-methylphenyl)urea] | 6.02
3.14 | – | CC(=O)Nc1cccc2c(Oc3ccc(NC(=O)c4ccc(Cl)c(C(F)(F)F)c4)cc3)ccnc12 [Compound 1d, N-[4-(8-acetylaminoquinolin-4-yloxy)phenyl]-4-chloro-3-trifluoromethylbenzamide] | 5.47
2.56 | – | Nc1cccc2c(Oc3cccc(NC(=O)Nc4ccc(Cl)c(C(F)(F)F)c4)c3)ccnc12 [Compound 1f, 1-[3-(8-aminoquinolin-4-yloxy)phenyl]-3-(4-chloro-3-trifluoromethylphenyl)urea] | 10.4
6.73 | – | Nc1cccc2c(Oc3cccc(NC(=O)c4ccc(Cl)c(C(F)(F)F)c4)c3)ccnc12 [Compound 1g, N-[3-(8-aminoquinolin-4-yloxy)phenyl]-4-chloro-3-trifluoromethylbenzamide] | > 20
2.32 | – | CC(=O)Nc1cccc2c(Oc3cccc(NC(=O)Nc4ccc(Cl)c(C(F)(F)F)c4)c3)ccnc12 [Compound 1h, 1-[3-(8-acetylaminoquinolin-4-yloxy)phenyl]-3-(4-chloro-3-trifluoromethylphenyl)urea] | 5.68
3.49 | – | CC(=O)Nc1cccc2c(Oc3cccc(NC(=O)c4ccc(Cl)c(C(F)(F)F)c4)c3)ccnc12 [Compound 1i, N-[3-(8-acetylaminoquinolin-4-yloxy)phenyl]-4-chloro-3-trifluoromethylbenzamide] | > 20
0.77 to 0.8 | 0.78 | O=C(Nc1cccc(Oc2ccnc3c(NC(=O)c4ccccc4)cccc23)c1)c1ccc(Cl)c(C(F)(F)F)c1 [Compound 1j, N-[3-(8-benzoylaminoquinolin-4-yloxy)phenyl]-4-chloro-3-trifluoromethylbenzamide] | > 20
1.3 | – | CC(=O)Nc1cccc2c(Oc3cc(NC(=O)c4ccc(Cl)c(C(F)(F)F)c4)ccc3C)ccnc12 [Compound 1k, N-[3-(8-acetylaminoquinolin-4-yloxy)-4-methylphenyl]-4-chloro-3-trifluoromethylbenzamide] | > 20
